Assay: refractive index (Na D-line) (dimensionless); xn = mol fraction of the nth substance listed
Conditions: 101 kPa, Liquid, Standard Abbe refractometry

C1CCOCC1 [tetrahydropyran] + CC(C)O
Conditions | refractive index
293.15 K, x2 = 0 | 1.39161
293.15 K, x2 = 0.0501 | 1.39085
293.15 K, x2 = 0.0999 | 1.3902
293.15 K, x2 = 0.1499 | 1.38954
293.15 K, x2 = 0.2003 | 1.38897
293.15 K, x2 = 0.2506 | 1.38839
293.15 K, x2 = 0.2999 | 1.38777
293.15 K, x2 = 0.35 | 1.38719
293.15 K, x2 = 0.3999 | 1.3866
293.15 K, x2 = 0.4499 | 1.38599
293.15 K, x2 = 0.5001 | 1.38539
293.15 K, x2 = 0.5502 | 1.38478
293.15 K, x2 = 0.6001 | 1.38415
293.15 K, x2 = 0.6499 | 1.38347
293.15 K, x2 = 0.7001 | 1.3827
293.15 K, x2 = 0.7499 | 1.38194
293.15 K, x2 = 0.8 | 1.38113
293.15 K, x2 = 0.8501 | 1.38021
293.15 K, x2 = 0.9001 | 1.37932
293.15 K, x2 = 0.9499 | 1.37832
303.15 K, x2 = 0 | 1.3866
303.15 K, x2 = 0.0502 | 1.38571
303.15 K, x2 = 0.1001 | 1.38505
303.15 K, x2 = 0.1501 | 1.38441
303.15 K, x2 = 0.1998 | 1.38377
303.15 K, x2 = 0.2499 | 1.3832
303.15 K, x2 = 0.3 | 1.38259
303.15 K, x2 = 0.3499 | 1.38201
303.15 K, x2 = 0.4001 | 1.38144
303.15 K, x2 = 0.4501 | 1.38087
303.15 K, x2 = 0.5001 | 1.38026
303.15 K, x2 = 0.55 | 1.37965
303.15 K, x2 = 0.6 | 1.37903
303.15 K, x2 = 0.65 | 1.37841
303.15 K, x2 = 0.6999 | 1.37775
303.15 K, x2 = 0.7499 | 1.37704
303.15 K, x2 = 0.8001 | 1.37633
303.15 K, x2 = 0.85 | 1.37553
303.15 K, x2 = 0.8998 | 1.37469
303.15 K, x2 = 0.9499 | 1.3738
313.15 K, x2 = 0 | 1.38143
313.15 K, x2 = 0.05 | 1.38065
313.15 K, x2 = 0.1 | 1.37995
313.15 K, x2 = 0.1501 | 1.37929
313.15 K, x2 = 0.2 | 1.37868
313.15 K, x2 = 0.2499 | 1.37807
313.15 K, x2 = 0.2997 | 1.37748
313.15 K, x2 = 0.3499 | 1.37692
313.15 K, x2 = 0.4 | 1.37632
313.15 K, x2 = 0.4504 | 1.37573
313.15 K, x2 = 0.5001 | 1.37513
313.15 K, x2 = 0.55 | 1.37457
313.15 K, x2 = 0.5999 | 1.37399
313.15 K, x2 = 0.65 | 1.37339
313.15 K, x2 = 0.7001 | 1.3728
313.15 K, x2 = 0.7502 | 1.37216
313.15 K, x2 = 0.7999 | 1.37151
313.15 K, x2 = 0.85 | 1.37081
313.15 K, x2 = 0.8998 | 1.37005
313.15 K, x2 = 0.9498 | 1.36931
323.15 K, x2 = 0 | 1.37627
323.15 K, x2 = 0.05 | 1.3752
323.15 K, x2 = 0.1 | 1.37442
323.15 K, x2 = 0.1501 | 1.37378
323.15 K, x2 = 0.2 | 1.37312
323.15 K, x2 = 0.2499 | 1.37252
323.15 K, x2 = 0.2997 | 1.37192
323.15 K, x2 = 0.3499 | 1.37127
323.15 K, x2 = 0.4 | 1.37072
323.15 K, x2 = 0.4504 | 1.37012
323.15 K, x2 = 0.5001 | 1.3695
323.15 K, x2 = 0.5501 | 1.36901
323.15 K, x2 = 0.6 | 1.36843
323.15 K, x2 = 0.65 | 1.36789
323.15 K, x2 = 0.6999 | 1.36729
323.15 K, x2 = 0.7502 | 1.36664
323.15 K, x2 = 0.8002 | 1.36608
323.15 K, x2 = 0.8501 | 1.36542
323.15 K, x2 = 0.8998 | 1.36485
323.15 K, x2 = 0.9501 | 1.3642
